# “And” between values parts separate entries of the source, which are not always exact repeats. Identical values can stand only once. “Also recorded” adds a separate entry of the source. Square brackets hold non-standard residues; d marks the D form. Peptide text beside a SMILES is read from it. dPhe(4-Cl) = N[C@H](Cc1ccc(Cl)cc1)C(=O)O; d2Nal = N[C@H](Cc1ccc2ccccc2c1)C(=O)O; dCit = NC(=O)NCCC[C@@H](N)C(=O)O; d3Pal = N[C@H](Cc1cccnc1)C(=O)O
# Key:
# mature Angus heifers = assay: Cetrorelix versus estradiol benzoate synchronization protocol with AI, random day of cycle (Example 7); type: in vivo, cattle
# Method: This experiment was conducted on 38 mature Angus heifers at the Federal University of Santa Maria in Brazil. Heifers on a random day of the cycle (defined as Day 0) were divided into 2 groups (n=19 per group) and treated with a single i/m injection of 3 mg cetrorelix or with estradiol benzoate (1 mg i/m). A progesterone-releasing device (CIDR) was placed in the vagina of heifers at this time. Eight days after the cetrorelix or estradiol treatments, heifers were given 500 ug cloprostenol (prostaglandin analog) i/m injections and the CIDR device was removed. […] Heifers were given 250 ug gonadorelin acetate (GnRH analog) i/m injection at the time of artificial insemination. […] Pregnancy diagnosis was done 29-30 days after artificial insemination.
# [1] = test system: GnRH-induced plasma LH levels and ovulation; assay: GnRH challenge in heifers pre-treated with GnRH antagonists: plasma LH and ovulation (Example 10); type: in vivo, cattle; conditions: for Plasma LH response to GnRH challenge: heifers pre-treated with antagonist 60 minutes before GnRH injection
# Method: Methods: Pubertal heifers (n=10) with a functional CL were selected at the Federal University of Santa Maria. Heifers were administered an intramuscular (i/m) injection of prostaglandin F2a analog (PGF; Lutalyse 5 ml or Estrumate 2 ml) to induce CL regression. Heifers were randomly placed into 4 treatment groups at the time of PGF injection: Trt1 (n=2, 3 mg of Abarelix); Trt2 (n=2, 3 mg of Degarelix), Trt3 (n=2, 3 mg of Relugolix) and Trt 4 (n=4; Cetrorelix 3 mg). Heifers were treated with these GnRH antagonists 1.5 days (36 hr) after the PGF injection and the GnRH antagonist treatment time point was defined as −60 mins. Heifers were treated with GnRH ([…] of Fertagyl i/m) at 0 mins to induce ovulation. Jugular venipuncture plasma samples were collected every 60 minutes for 3 hours (from −60 min to 120 minutes, with t=0 min when GnRH is administered). Plasma samples were kept at 4C overnight and LH analysis was performed the next day using a bovine-specific ELISA commercial kit. Transrectal ultrasonography was conducted to the time of GnRH injection (Time 0 hr) and 2 days later (48 hr after GnRH injection) to record the size of dominant follicle and to detect ovulation after treatment.
# [2] = after single injection of 0.25 mg in women; cited from earlier work
# bovine pituitary cells = assay: GnRH-induced LH secretion of bovine pituitary cells in vitro (Example 9); type: cell-based; conditions: 300 μg cetrorelix, 340 μg Degarelix, 300 ug Abarelix, 130 μg Relugolix
# Method: Methods: The heads of mature, non-pregnant cows (n=4) were collected from a local abattoir and the pituitary glands were dissected within 60 minutes of slaughter. Immediately following the dissection, the pituitaries were submerged into ice-cold collection medium. The pituitaries were washed 3 times in collection media and the neurohypophysis was dissected from the adenohypophysis. Using a scalpel, the adenohypophysis (anterior pituitary) was sliced into 1 mm×1 mm pieces and transferred to a 50 mL falcon tube containing DMEM medium with 0.5% BSA. The tissue pieces were washed by manually agitating the tube for 1 minute. The tissue pieces were allowed to settle to the bottom of the tube, then the supernatant was discarded. The macerated pieces were transferred to a 15 mL falcon tube with the dissociation medium and incubated at 37° C. for 60 minutes. Every 10 minutes the tube was vortexed for 1 minute to ensure the tissue was completely dissociated. The dissociation media was inactivated using DMEM with 10% SFB then manually agitating the tube for 1 minute. The dissociated cells were placed in a 40 μm cell strainer to remove the undigested tissue and placed into two 15 mL falcon tubes. The cells were centrifuged at 200×g for 10 minutes and the supernatant was discarded. The cells were washed three times by resuspending in DMEM solution with red blood cell lysing buffer followed by centrifuged at 200×g for 10 minutes. Then the cells were washed with DMEM solution and centrifuged at 200×g for 10 minutes. Following the last centrifugation, the cells were resuspended in DMEM, and the trypan blue test was used to determine the cell count and assess viability. DMEM with 10% fetal bovine serum (FBS) was treated with 10% charcoal-dextran and passed through a 0.2 μm filter. The cells were then plated in a 24-well tissue culture plate with a concentration of 1×10^6 viable cells per well and incubated at 37° C. for 24 hours. The following day, to starve the cells, the culture media was replaced with DMEM without FBS and left to incubate for another 24 hours.
# Treatments: Based on the results from the pilot study, the selected concentration for Cetrorelix (cetrorelix acetate) was 300 μg. The cetrorelix was dissolved in trace levels of DMSO then dissolved in ultrapure water. To standardize the treatments, the nanomole concentration of each GnRH antagonist were matched with the cetrorelix nanomole concentration. The final concentration used for further experiments were: 300 μg for cetrorelix, 340 μg for Degarelix (Degarelix acetate), 300 ug for Abarelix (Abarelix acetate). Both degarelix and abarelix were dissolved ultrapure water. The equivalent Relugolix nanomole concentration was 130 μg which was dissolved in methanol. Treatment cells were preincubated for 60 minutes with either Cetrorelix, Degarelix, Relugolix or Abarelix. Following the preincubation, the cells were incubated for 30 minutes with either 1 nM or 10 nM of GnRH (Gonadorelin, Fertagyl, Merck Animal Health). GnRH doses were based on pituitary study by Paolicchi et al. 1999). The media were collected and centrifuged at 200×g for 10 minutes to remove the cells. Positive (Control) group was only treated with 1 nM and 10 nM of GnRH to determine the maximum LH secretion. LH concentrations in the culture medium was measured by a commercial bovine specific ELISA kit and reported as mIU/ml of medium.
# [3] = 3 mg cetrorelix or 1 mg estradiol benzoate i/m
# [4] = individual heifers, 3 mg antagonist 60 min before GnRH
# [5] = individual heifers, after GnRH injection, 3 mg antagonist at −60 min
smiles,measurement,setting,value
"CC(=O)N[C@H](Cc1ccc2ccccc2c1)C(=O)N[C@H](Cc1ccc(Cl)cc1)C(=O)N[C@H](Cc1cccnc1)C(=O)N[C@@H](CO)C(=O)N[C@@H](Cc1ccc(O)cc1)C(=O)N[C@H](CCCNC(N)=O)C(=O)N[C@@H](CC(C)C)C(=O)N[C@@H](CCCNC(=N)N)C(=O)N1CCC[C@H]1C(=O)N[C@H](C)C(N)=O [Cetrorelix, N-acetyl-3-(2-naphthyl)-D-alanyl-4-chloro-D-phenylalanyl-3-(3-pyridyl)-D-alanyl-L-seryl-L-tyrosyl-D-citrullyl-L-leucyl-L-arginyl-L-prolyl-D-alaninamide] (Ac-[d2Nal][dPhe(4-Cl)][d3Pal]SY[dCit]LRP[dA]-NH2)","Heifers showing estrous behavior, compared with estradiol-progesterone treatment",mature Angus heifers; 3 mg cetrorelix i/m,greater proportion
same,Pregnant/Double AI,mature Angus heifers; [3],7/9
same,"Pregnant/Double AI, percent",mature Angus heifers; [3],78%
same,Pregnant/Single AI,mature Angus heifers; [3],8/10
same,"Pregnant/Single AI, percent",mature Angus heifers; [3],80%
same,Ovulations that occurred between 72 to 96 hr after prostaglandin injection,mature Angus heifers; cetrorelix protocol,90%
same,"Pregnant/Total, percent (pregnancy rate)","mature Angus heifers; random day of cycle, 3 mg cetrorelix i/m or 1 mg estradiol benzoate i/m, CIDR 8 days",79%
same,Pregnant/Total,"mature Angus heifers; random day of cycle, 3 mg cetrorelix i/m or 1 mg estradiol benzoate i/m, CIDR 8 days, PGF, GnRH at AI",15/19
same,Plasma LH response to GnRH challenge,[1],did not register an increase in LH
same,Plasma LH response to GnRH challenge,[1]; listed as cetrorelix,LH levels remained unchanged; also recorded: block the GnRH-induced LH release
same,Ovulation (Yes/No) within 48 hr of GnRH treatment,"[1]; heifers, 3 mg antagonist 60 min before GnRH",No
same,Ovulation (Yes/No) within 48 hr of GnRH treatment,"[1]; heifers, 3 mg antagonist 60 min before GnRH, listed as cetrorelix",prevent GnRH-induced ovulations
same,"Plasma LH concentration at 60 minute, group Mean","[1]; heifers, after GnRH injection",12.83 mIU/ml
same,"Plasma LH concentration at 120 minute, group Mean","[1]; heifers, after GnRH injection",12.18 mIU/ml
same,"Plasma LH concentration at −60 minute, group Mean","[1]; heifers, time of 3 mg GnRH antagonist injection",11.63 mIU/ml
same,"Plasma LH concentration at 0 minute, group Mean","[1]; heifers, time of GnRH injection",10.07 mIU/ml
same,Dominant follicle diameter (mm) 48 hr after GnRH Injection,[1]; [4],9.8 mm and 12 mm
same,Dominant follicle diameter (mm) at GnRH injection,[1]; [4],7.5 mm and 10.5 mm
same,Plasma LH concentration at 60 minute,[1]; [5],18.33 mIU/ml and 22.72 mIU/ml and 5.12 mIU/ml and 5.15 mIU/ml
same,Plasma LH concentration at 120 minute,[1]; [5],23.74 mIU/ml and 15.04 mIU/ml and 4.60 mIU/ml and 5.32 mIU/ml
same,Plasma LH concentration at −60 minute,"[1]; individual heifers, time of 3 mg GnRH antagonist injection, 60 mins before GnRH",24.29 mIU/ml and 12.03 mIU/ml and 5.24 mIU/ml and 4.96 mIU/ml
same,Plasma LH concentration at 0 minute,"[1]; individual heifers, time of GnRH injection, 3 mg antagonist at −60 min",18.10 mIU/ml and 12.23 mIU/ml and 5.29 mIU/ml and 4.66 mIU/ml
same,Elimination half-life,[2],5 h
same,LH conc in medium,bovine pituitary cells; challenged with 1 nM GnRH 30 minutes after 60 minutes preincubation,0.09 mIU/mL
same,LH conc in medium,bovine pituitary cells; challenged with 10 nM GnRH 30 minutes after 60 minutes preincubation,0.50 mIU/mL

# Source: US20260034192A1 (University of Saskatchewan, priority 2022, published 2026)
